Legend:
[1] = Growth inhibition of human L3.6p1 cells; assay type: functional
[2] = Growth inhibition of human Panc 05.04 cells; assay type: functional
BXPC-3 [3] = assay: Growth inhibition of human BxPC3 cells; assay type: functional
[4] = Growth inhibition of human D283 MED cells; assay type: functional
Daoy = assay: Growth inhibition of human DaOY cells; assay type: functional
[5] = In vivo antitumor activity against human L3.6s1 cells assessed as inhibition of tumor growth; assay type: functional
BXPC-3 [6] = assay: In vivo antitumor activity against human BxPC3 cells assessed as inhibition of tumor growth; assay type: functional
[7] = Antitumor activity against human medulloblastoma cells; assay type: functional; details: Medulloblastoma cell
Zinc finger protein GLI1 = target: T1, Zinc finger protein GLI1 (Homo sapiens, UniProt P08151); assay: Inhibition of Gli1-mediated transcription expressed in human PANC1 cells; assay type: cell-based; details: panc-1
T1 sequence (P08151 whole entry): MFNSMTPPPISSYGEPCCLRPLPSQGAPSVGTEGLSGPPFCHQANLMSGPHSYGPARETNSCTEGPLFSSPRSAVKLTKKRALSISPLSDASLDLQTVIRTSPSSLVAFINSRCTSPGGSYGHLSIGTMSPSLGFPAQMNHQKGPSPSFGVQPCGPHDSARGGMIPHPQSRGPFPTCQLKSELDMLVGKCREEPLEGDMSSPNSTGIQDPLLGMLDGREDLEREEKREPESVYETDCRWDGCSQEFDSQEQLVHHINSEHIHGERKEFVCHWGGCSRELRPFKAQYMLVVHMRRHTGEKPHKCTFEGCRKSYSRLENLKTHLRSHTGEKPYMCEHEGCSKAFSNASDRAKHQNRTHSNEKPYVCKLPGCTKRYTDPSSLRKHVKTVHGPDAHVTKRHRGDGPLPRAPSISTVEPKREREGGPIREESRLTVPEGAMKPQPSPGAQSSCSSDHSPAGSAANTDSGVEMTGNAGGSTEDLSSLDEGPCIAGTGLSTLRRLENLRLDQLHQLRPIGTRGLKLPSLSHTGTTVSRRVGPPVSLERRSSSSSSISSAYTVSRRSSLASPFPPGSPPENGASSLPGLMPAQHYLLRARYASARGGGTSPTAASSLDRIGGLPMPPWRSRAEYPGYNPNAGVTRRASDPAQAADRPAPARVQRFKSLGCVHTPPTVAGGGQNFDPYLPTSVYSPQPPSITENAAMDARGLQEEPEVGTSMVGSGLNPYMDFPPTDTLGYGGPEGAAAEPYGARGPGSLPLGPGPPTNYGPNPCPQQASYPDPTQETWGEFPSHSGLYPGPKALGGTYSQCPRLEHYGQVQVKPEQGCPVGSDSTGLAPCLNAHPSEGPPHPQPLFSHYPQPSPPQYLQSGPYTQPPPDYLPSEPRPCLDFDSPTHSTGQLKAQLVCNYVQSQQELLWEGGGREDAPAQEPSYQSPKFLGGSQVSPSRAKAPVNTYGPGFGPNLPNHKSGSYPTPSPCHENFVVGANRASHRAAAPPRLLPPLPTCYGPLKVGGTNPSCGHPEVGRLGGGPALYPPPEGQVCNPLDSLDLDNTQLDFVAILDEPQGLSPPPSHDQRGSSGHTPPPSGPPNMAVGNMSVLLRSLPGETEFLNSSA

Mus musculus = assay: Antitumor activity against transgenic mouse medulloblastoma model with loss of function mutations in Ptch1 and Hic1 gene administered as once daily oral dose; assay type: functional
[8] = Selectivity for Gli over Gli2
PANC-1 = assay: Selectivity for human PANC1 cells over mouse C3H10/T1/2 cells

Structure (SMILES): CCOc1ccc(Nc2nc(-c3c(C)nc4ccccn34)cs2)cc1
- GI50 [1]: 3 nM
- GI50 [2]: 3 nM
- GI50 (BXPC-3 [3]): 3 nM
- GI50 [4]: 3 nM
- GI50 (Daoy): 3 nM
- inhibition (INH) [5]: 30%
- inhibition (INH) (BXPC-3 [6]): 30%

Structure (SMILES): COc1cc(OC)cc(C(=O)Nc2ccc(Cl)c(-c3nc4cc(N(C)C)ccc4[nH]3)c2)c1
- IC50 [7]: 10000 nM

Structure (SMILES): C=C(C)[C@@H]1CC[C@]2(C(=O)O)CC[C@]3(C)[C@H](CC[C@@H]4[C@@]5(C)C[C@@H](O)[C@H](O)C(C)(C)[C@@H]5CC[C@]43C)[C@@H]12 [ALPHITOLIC ACID]
- IC50 (Zinc finger protein GLI1): 42000 nM

Structure (SMILES): C=C(C)[C@@H]1CC[C@]2(C(=O)O)CC[C@]3(C)[C@H](CC[C@@H]4[C@@]5(C)CC[C@H](O)C(C)(C)[C@@H]5CC[C@]43C)[C@@H]12 [BETULINIC ACID]
- IC50 (Zinc finger protein GLI1): 32000 nM

Structure (SMILES): CC1=C2C[C@H]3[C@@H](CC[C@@H]4CNC(=O)CC[C@@]43C)[C@@H]2CC[C@@]2(C1)O[C@@H]1C[C@H](C)CN[C@H]1[C@H]2C
- ED50 (Mus musculus): < 7.5 mg/kg

Structure (SMILES): C[C@@]12C[C@H]3OC(=O)[C@@H]1CO[C@]14O[C@]5([C@H]2C1=O)[C@@](O)(CC[C@H]1[C@H]4C[C@H]2O[C@]24CC=CC(=O)[C@]14C)C(=O)O[C@@]35C [PHYSALIN F]
- Ratio IC50 [8]: 2
- Selectivity Index (PANC-1): 3

Structure (SMILES): C[C@]12C(=O)C=CCC1=CC[C@@H]1[C@@H]2CC[C@]2(O)C(=O)O[C@@]3(C)[C@H]4C[C@]5(C)[C@@H](CO[C@@]16O[C@@]32[C@H]5C6=O)C(=O)O4 [PHYSALIN B]
- Ratio IC50 [8]: 2
- Selectivity Index (PANC-1): 3

Structure (SMILES): O=C1NCc2c1c1c3ccccc3[nH]c1c1[nH]c3ccccc3c21 [STAUROSPORINONE]
- Selectivity Index (PANC-1): 3

Structure (SMILES): C=C(C)[C@@H]1CC[C@]2(C(=O)O)CC[C@]3(C)[C@H](CC[C@@H]4[C@@]5(C)[C@H](C=O)[C@@H](O)C(C)(C)[C@@H]5CC[C@]43C)[C@@H]12 [COLUBRINIC ACID]
- IC50 (Zinc finger protein GLI1): 38000 nM

Source: ChEMBL document CHEMBL1138588, “Hedgehog-Gli signaling pathway inhibitors as anticancer agents” (J Med Chem, 2009)
